Read-outs that look alike come from different tables or passages of the source. Marks after values point to notes of the source that are not given here.
Key:
[1] = test system: human ovarian tumor xenografts (A-2780); test: Cisplatin-resistant ovarian cancer xenograft model; type: in vivo, mice; conditions: oral
Text: The efficacy of RX-5902 in human cancer xenograft mouse models is examined. Female nude mice (nu/nu, Harlan or CRL: NU(NCr)-Foxn1^nu, Charles River), 9-10 weeks old, with a body weight (BW) range of 15-30 g on day 1 of the study, are fed ad libitum water (reverse osmosis, 1 ppm C1), and NIH 31 Modified and Irradiated Lab Diet® consisting of 18.0% crude protein, 5.0% crude fat, and 5.0% crude fiber. The mice are housed on irradiated Enrich-o'Cobs™ Laboratory Animal Bedding in static microisolators on a 12-hour light cycle at 20-22° C. (68-72° F.) and 40-60% humidity. The study complies with the recommendations of the Guide for, Care and Use of Laboratory Animals with respect to restraint, husbandry, surgical procedures, feed and fluid regulation, and veterinary care.
Various human tumor cell lines (e.g., HCT116, HT29, H460, H69, Caki-1, CaSki, MiaPaca2, BxPC3 and Colo 205 cells [ATCC, Manassas, Va., USA]) are cultured according to ATCC's instruction. […]
The cells are harvested during exponential growth and re-suspended with phosphate buffered saline. Each test animal receives a subcutaneous (s.c.) injection of 5×10^6 tumor cells into the right flank and tumor growth is monitored as the average tumor size approaches the target range of 80-300 mm^3. […] Tumors and body weights are measured regularly until the study is terminated.
Tumors are measured in two dimensions using calipers, and volume is calculated using the formula: […]
Treatment efficacy is determined using data from Day 15. The MTV (n), the median tumor volume for the number of animals, n, on Day 15, is determined for each group. Percent tumor growth inhibition (% TGI) is defined as the difference between the MTV of the designated control group (vehicle administration) and the MTV of the drug-treated group, expressed as a percentage of the MTV of the control group: % TGI=[1−(MTVdrug treated/MTVcontrol)]×100 The data set for TGI analysis includes all animals in a group, except those that die due to treatment-related (TR) or non-treatment-related (NTR) causes. […]
Animals are monitored individually for tumor growth until Day 71. […]

p68 RNA helicase = biological target: T1, p68 RNA helicase (Homo sapiens, UniProt P17844); test: RNA-dependent ATPase assay; type: biochemical; conditions: total RNA extracted from yeast
T1 construct: made in house
T1 sequence (P17844 whole entry): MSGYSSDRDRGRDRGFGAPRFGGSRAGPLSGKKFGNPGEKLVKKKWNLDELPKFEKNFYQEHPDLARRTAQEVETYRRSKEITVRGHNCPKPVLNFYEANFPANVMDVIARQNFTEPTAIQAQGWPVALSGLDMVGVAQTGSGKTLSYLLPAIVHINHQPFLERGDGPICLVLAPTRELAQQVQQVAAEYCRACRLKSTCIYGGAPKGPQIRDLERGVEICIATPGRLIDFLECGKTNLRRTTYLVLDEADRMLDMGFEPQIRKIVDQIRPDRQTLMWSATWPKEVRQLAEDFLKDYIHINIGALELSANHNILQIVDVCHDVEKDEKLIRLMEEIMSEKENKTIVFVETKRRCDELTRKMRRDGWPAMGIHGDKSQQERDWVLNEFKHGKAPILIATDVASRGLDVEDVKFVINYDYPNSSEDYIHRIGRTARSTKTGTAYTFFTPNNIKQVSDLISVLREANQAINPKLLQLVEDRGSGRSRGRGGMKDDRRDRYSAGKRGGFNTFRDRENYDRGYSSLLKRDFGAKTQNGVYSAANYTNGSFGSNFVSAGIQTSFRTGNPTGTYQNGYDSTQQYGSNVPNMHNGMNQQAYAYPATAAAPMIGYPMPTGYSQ
Description: ATPase activity was determined by measuring the released inorganic phosphate during ATP hydrolysis using a direct colorimetric assay (Shin et al., Cancer Res., 67:7572-7578 (2007); Yang et. al., Cell, 127:139-155 (2006)). A typical ATPase assay was carried out in 50 μl reaction volumes, containing 20 mM Tris-HCl pH 7.5, 200 mM NaCl, 1 mM MgCl2, 5 mM DTT, ˜1-2 of appropriate substrate, 4 mM ATP, and 10 μl of helicase. The ATPase reactions were incubated at 37° C. for 30 minutes. After incubation, 1 ml of malachitegreen-molybdenum reagent was added to the reaction mixture, and reactions were further incubated at room temperature for exactly 5 minutes. The absorption (A) at 630 nm was then measured. The concentrations of inorganic phosphate were determined by matching the A630nm in a standard curve of A630nm vs. known phosphate concentrations. […] The percentage of inhibition by defining the ATPase activity of phospho-p68 without RX-5902 as zero percent inhibition was calculated and IC50 of RX-5902 was calculated by non-linear regression analysis using Kaledia Graph software program (Synergy Software, Reading, Pa.).
The effect of RX-5902 on ATPase activity of p68 was investigated. To do this, ATPase activity of recombinant p68 in the presence of RX-5902 and total RNA extracted from yeast were measured.

[2] = Solubility assessment in solvents; type: physicochemical; conditions: organic solvent or mixture, thermodynamic from solid
Description: RX-5902 (ca. 2 mg) was weighed in a 1.5 ml clear glass vials. An aliquot of the corresponding solvent or solvent mixture was added at RT and solubility was assessed after 10 min as shown in Table 12. Solutions and suspensions were then placed into a shaking chamber at 50° C. for 10 more minutes. If no dissolution was observed, another aliquot of solvent was added and samples were placed in the shaking chamber at 50° C. for 10 more minutes. This procedure was repeated until dissolution was achieved or a maximum of 400 vol was added.

## COc1cc(OC)cc(N2CCN(C(=O)Nc3nc4cc(F)ccc4nc3OC)CC2)c1 [RX-5902, 4-(3,5-dimethoxyphenyl)-N-(7-fluoro-3-methoxyquinoxalin-2-yl)piperazine-1-carboxamide]
[1]; 160 mg/kg QWK
  TGI %: 43%*
[1]; 320 mg/kg QWK
  TGI %: 43%*
[1]; 600 mg/kg QWK
  TGI %: 75%*
p68 RNA helicase; 0.2 μM
  effect on RNA-dependent ATPase activity: did not affect
p68 RNA helicase; 20 μM
  inhibition of RNA-dependent ATPase activity: less than 30%
[2]; DMSO, 50 °C, read-out: Solubility at 50° C.
  solubility at 10 min: ≥ 100 mg/mL
[2]; DMSO, read-out: Solubility at RT
  solubility at 10 min: < 100 mg/mL
[2]; MEK, 50 °C, read-out: Solubility at 50° C.
  solubility at 10 min: ≥ 12.5 mg/mL
[2]; MEK, read-out: Solubility at RT
  solubility at 10 min: < 100 mg/mL
[2]; MIBK, 50 °C, read-out: Solubility at 50° C.
  solubility at 10 min: ≥ 6.25 mg/mL
[2]; MIBK, read-out: Solubility at RT
  solubility at 10 min: < 100 mg/mL
[2]; THF, 50 °C, read-out: Solubility at 50° C.
  solubility at 10 min: ≥ 25 mg/mL
[2]; THF, read-out: Solubility at RT
  solubility at 10 min: < 100 mg/mL
[2]; acetone, 50 °C, read-out: Solubility at 50° C.
  solubility at 10 min: ≥ 12.5 mg/mL
[2]; acetone, read-out: Solubility at RT
  solubility at 10 min: < 100 mg/mL
[2]; acetonitrile, 50 °C, read-out: Solubility at 50° C.
  solubility at 10 min: ≥ 12.5 mg/mL
[2]; acetonitrile, read-out: Solubility at RT
  solubility at 10 min: < 100 mg/mL
[2]; ethanol, 50 °C, read-out: Solubility at 50° C.
  solubility at 10 min: ≥ 2.5 mg/mL
[2]; ethanol, read-out: Solubility at RT
  solubility at 10 min: < 100 mg/mL
[2]; ethyl acetate, 50 °C, read-out: Solubility at 50° C.
  solubility at 10 min: ≥ 12.5 mg/mL
[2]; ethyl acetate, read-out: Solubility at RT
  solubility at 10 min: < 100 mg/mL
[2]; isopropanol-10% water, 50 °C, read-out: Solubility at 50° C.
  solubility at 10 min: ≥ 2.5 mg/mL
[2]; isopropanol-10% water, read-out: Solubility at RT
  solubility at 10 min: < 100 mg/mL
[2]; methanol, 50 °C, read-out: Solubility at 50° C.
  solubility at 10 min: ≥ 2.5 mg/mL
[2]; methanol, read-out: Solubility at RT
  solubility at 10 min: < 100 mg/mL

From patent publication US9969698B2, “Quinoxalinyl-piperazinamide methods of use” (REXAHN PHARMACEUTICALS, INC., priority 2015, dated 2018)
